# Assay results: US20230133580A1, “MENTHOL-CONTAINING COMPOSITION” (SUNSHO PHARMACEUTICAL CO., LTD., priority 2020, published 2023)
# Where a name gives a salt, the structure may show the parent alone.
# Experiments:
# [1] = l-Menthol dissolution test; type: physicochemical; conditions: for Dissolution: stored at 20° C.
# Description: The solution was stored at 20° C. and evaluated based on the time during which the solution was maintained in a liquid state without solidifying.
# A sample that solidified before being cooled down to 20° C. [e.g., during the process of cooling down to a temperature below the melting point of l-menthol (generally 42 to 45° C.)] or immediately (e.g., within 30 minutes) after being stored at 20° C. was rated D. A sample that was maintained as a solution for a while (e.g., more than 30 minutes) but solidified in less than 24 hours was rated C.
# [2] = Encapsulation test C (interfacial tension against purified water); type: physicochemical; conditions: for interfacial tension: against purified water
# Description: The interfacial tension was measured with the force tensiometer SIGMA 702 (KSV Instruments LTD).
# [3] = menthol concentration ranging 70 to 50 wt %
# [4] = menthol concentration ranging 60 to 50 wt %
# [5] = samples containing 80 to 50 wt % l-menthol
Structure (SMILES),"Dissolution ([1]; l-Menthol 50, solvent 50 pbw)","Dissolution ([1]; l-Menthol 60, solvent 40 pbw)","Dissolution ([1]; l-Menthol 70, solvent 30 pbw)","ability to dissolve menthol (rating) [1, 3]","ability to dissolve menthol (rating) [1, 4]",also measured
"CCOCCOCC [1,2-Diethoxyethane]",A (A sample that did not solidify in 10 days or more was rated A),A (A sample that did not solidify in 10 days or more was rated A),A (A sample that did not solidify in 10 days or more was rated A),A (A sample that did not solidify in 10 days or more was rated A),–,–
"CC(=O)OCCCCCCOC(C)=O [1,6-Diacetoxyhexane]",A (A sample that did not solidify in 10 days or more was rated A),A (A sample that did not solidify in 10 days or more was rated A),"C (A sample that was maintained as a solution for a while (e.g., more than 30 minutes) but solidified in less than 24 hours was rated C)",–,A (A sample that did not solidify in 10 days or more was rated A),–
"CC(=O)OCCCCCCCCOC(C)=O [1,8-Diacetoxyoctane]",A (A sample that did not solidify in 10 days or more was rated A),"C (A sample that was maintained as a solution for a while (e.g., more than 30 minutes) but solidified in less than 24 hours was rated C)","C (A sample that was maintained as a solution for a while (e.g., more than 30 minutes) but solidified in less than 24 hours was rated C)",–,–,ability to dissolve menthol (rating) ([1]; menthol concentration of 50%): A (A sample that did not solidify in 10 days or more was rated A)
OCc1ccccc1 [Benzyl alcohol],–,–,–,–,–,"Dissolution ([1]; l-Menthol 80, solvent 20 pbw): A (A sample that did not solidify in 10 days or more was rated A)"
O=C(OCc1ccccc1)c1ccccc1 [Benzyl benzoate],B (A sample that solidified in 24 hours or more but less than 10 days was rated B),"C (A sample that was maintained as a solution for a while (e.g., more than 30 minutes) but solidified in less than 24 hours was rated C)","C (A sample that was maintained as a solution for a while (e.g., more than 30 minutes) but solidified in less than 24 hours was rated C)",–,–,ability to dissolve menthol (rating) ([1]; menthol concentration of 50%): B (A sample that solidified in 24 hours or more but less than 10 days was rated B)
CCOC(=O)/C=C/C(=O)OCC [Diethyl fumarate],A (A sample that did not solidify in 10 days or more was rated A),A (A sample that did not solidify in 10 days or more was rated A),"C (A sample that was maintained as a solution for a while (e.g., more than 30 minutes) but solidified in less than 24 hours was rated C)",–,A (A sample that did not solidify in 10 days or more was rated A),–
CCOC(=O)CC(=O)OCC [Diethyl malonate],B (A sample that solidified in 24 hours or more but less than 10 days was rated B),B (A sample that solidified in 24 hours or more but less than 10 days was rated B),B (A sample that solidified in 24 hours or more but less than 10 days was rated B),–,–,"Dissolution ([1]; l-Menthol 80, solvent 20 pbw): B (A sample that solidified in 24 hours or more but less than 10 days was rated B); ability to dissolve menthol (rating) ([1]; regardless of the menthol concentration): B (A sample that solidified in 24 hours or more but less than 10 days was rated B); interfacial tension [2, 5]: ≥ 5 mN/m"
CCOC(=O)CCCCCCCCC(=O)OCC [Diethyl sebacate],A (A sample that did not solidify in 10 days or more was rated A),A (A sample that did not solidify in 10 days or more was rated A),A (A sample that did not solidify in 10 days or more was rated A),A (A sample that did not solidify in 10 days or more was rated A),–,"Dissolution ([1]; l-Menthol 80, solvent 20 pbw): C (A sample that was maintained as a solution for a while (e.g., more than 30 minutes) but solidified in less than 24 hours was rated C); interfacial tension ([2]; samples containing 70 to 50 wt % l-menthol): ≥ 5 mN/m"
CCOC(=O)CCC(=O)OCC [Diethyl succinate],A (A sample that did not solidify in 10 days or more was rated A),A (A sample that did not solidify in 10 days or more was rated A),A (A sample that did not solidify in 10 days or more was rated A),A or B,–,"Dissolution ([1]; l-Menthol 80, solvent 20 pbw): C (A sample that was maintained as a solution for a while (e.g., more than 30 minutes) but solidified in less than 24 hours was rated C); interfacial tension [2, 5]: ≥ 5 mN/m; Interfacial tension rating ([2]; l-Menthol 50, solvent 50 pbw): A (a sample having an interfacial tension of 5 mN/m or more was rated A); Interfacial tension rating ([2]; l-Menthol 60, solvent 40 pbw): A (a sample having an interfacial tension of 5 mN/m or more was rated A); Interfacial tension rating ([2]; l-Menthol 70, solvent 30 pbw): A (a sample having an interfacial tension of 5 mN/m or more was rated A); Interfacial tension rating ([2]; l-Menthol 80, solvent 20 pbw): A (a sample having an interfacial tension of 5 mN/m or more was rated A)"
CCCCOCCOCCOCCCC [Diethylene glycol dibutyl ether],A (A sample that did not solidify in 10 days or more was rated A),A (A sample that did not solidify in 10 days or more was rated A),"C (A sample that was maintained as a solution for a while (e.g., more than 30 minutes) but solidified in less than 24 hours was rated C)",–,A (A sample that did not solidify in 10 days or more was rated A),–
CC(C)COC(=O)CCCCC(=O)OCC(C)C [Diisobutyl adipate],A (A sample that did not solidify in 10 days or more was rated A),A (A sample that did not solidify in 10 days or more was rated A),A (A sample that did not solidify in 10 days or more was rated A),A (A sample that did not solidify in 10 days or more was rated A),–,"Dissolution ([1]; l-Menthol 80, solvent 20 pbw): C (A sample that was maintained as a solution for a while (e.g., more than 30 minutes) but solidified in less than 24 hours was rated C)"
CCCCCCCCCC(=O)OCC [Ethyl decanoate],A (A sample that did not solidify in 10 days or more was rated A),A (A sample that did not solidify in 10 days or more was rated A),"C (A sample that was maintained as a solution for a while (e.g., more than 30 minutes) but solidified in less than 24 hours was rated C)",–,A (A sample that did not solidify in 10 days or more was rated A),–
CCCCCCCCCCCC(=O)OCC [Ethyl laurate],A (A sample that did not solidify in 10 days or more was rated A),A (A sample that did not solidify in 10 days or more was rated A),"C (A sample that was maintained as a solution for a while (e.g., more than 30 minutes) but solidified in less than 24 hours was rated C)",–,A (A sample that did not solidify in 10 days or more was rated A),–
CCCCCCCCCCCCCCCC(=O)OCC [Ethyl palmitate],B (A sample that solidified in 24 hours or more but less than 10 days was rated B),B (A sample that solidified in 24 hours or more but less than 10 days was rated B),"C (A sample that was maintained as a solution for a while (e.g., more than 30 minutes) but solidified in less than 24 hours was rated C)",–,B (A sample that solidified in 24 hours or more but less than 10 days was rated B),–
CC(=O)OCCOC(C)=O [Ethylene glycol diacetate],"C (A sample that was maintained as a solution for a while (e.g., more than 30 minutes) but solidified in less than 24 hours was rated C)","C (A sample that was maintained as a solution for a while (e.g., more than 30 minutes) but solidified in less than 24 hours was rated C)","C (A sample that was maintained as a solution for a while (e.g., more than 30 minutes) but solidified in less than 24 hours was rated C)",–,–,–
CCCCOCCOCCCC [Ethylene glycol dibutyl ether],A (A sample that did not solidify in 10 days or more was rated A),A (A sample that did not solidify in 10 days or more was rated A),A (A sample that did not solidify in 10 days or more was rated A),A (A sample that did not solidify in 10 days or more was rated A),–,–
"CCNCCCCCCNCC [N,N′-diethyl-1,6-hexanediamine]",A (A sample that did not solidify in 10 days or more was rated A),A (A sample that did not solidify in 10 days or more was rated A),A (A sample that did not solidify in 10 days or more was rated A),A (A sample that did not solidify in 10 days or more was rated A),–,–
CCCC(=O)OCC(COC(=O)CCC)OC(=O)CCC [Tributyrin],B (A sample that solidified in 24 hours or more but less than 10 days was rated B),"C (A sample that was maintained as a solution for a while (e.g., more than 30 minutes) but solidified in less than 24 hours was rated C)","C (A sample that was maintained as a solution for a while (e.g., more than 30 minutes) but solidified in less than 24 hours was rated C)",–,–,ability to dissolve menthol (rating) ([1]; menthol concentration of 50%): B (A sample that solidified in 24 hours or more but less than 10 days was rated B)
CCOC(=O)CC(O)(CC(=O)OCC)C(=O)OCC [Triethyl citrate],"C (A sample that was maintained as a solution for a while (e.g., more than 30 minutes) but solidified in less than 24 hours was rated C)","C (A sample that was maintained as a solution for a while (e.g., more than 30 minutes) but solidified in less than 24 hours was rated C)","C (A sample that was maintained as a solution for a while (e.g., more than 30 minutes) but solidified in less than 24 hours was rated C)",–,–,–
